These results are taken from publication PMC7558026, “Exploring and applying the substrate promiscuity of a C-glycosyltransferase in the chemo-enzymatic synthesis of bioactive C-glycosides” (Nature Communications, 2020).

Changes are numbered by the printed parent chain. Values joined by “and” are separate entries in the source; they are usually repeats but may differ in a detail not shown here. Equal values may be shown once.

The target of one assay is T1, AbCGT V183E (Aloe vera, UniProt A0A7G9P699, V183E).
T1 sequence (A0A7G9P699 1-470 V183E): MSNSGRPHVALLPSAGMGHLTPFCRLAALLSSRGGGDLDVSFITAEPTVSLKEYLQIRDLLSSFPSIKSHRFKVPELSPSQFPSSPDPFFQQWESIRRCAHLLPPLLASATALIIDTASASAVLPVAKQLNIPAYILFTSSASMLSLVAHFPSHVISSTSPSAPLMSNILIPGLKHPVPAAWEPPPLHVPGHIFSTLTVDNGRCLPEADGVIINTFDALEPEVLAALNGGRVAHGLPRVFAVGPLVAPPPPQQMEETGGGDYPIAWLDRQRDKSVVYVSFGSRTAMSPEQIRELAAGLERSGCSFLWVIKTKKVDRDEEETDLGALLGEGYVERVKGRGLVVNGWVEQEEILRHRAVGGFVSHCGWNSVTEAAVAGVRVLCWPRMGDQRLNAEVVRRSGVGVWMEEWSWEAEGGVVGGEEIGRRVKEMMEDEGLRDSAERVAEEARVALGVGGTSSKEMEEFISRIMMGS
Kind of assay: Glycosyltransferase activity of AbCGT variant V183E. The assay is classed as biochemical, Aloe barbadensis. As to the method:
(§1) The reaction mixture contained 0.5 mM sugar donors (1.0 mM for di-glycosylation), 0.25 mM aglycons, 50 mM Tris-HCl (pH 7.4), and 50‒100 μg of purified AbCGT in a final volume of 100 μL. Due to the instability of some acceptors in the buffer of pH 11.0, the reactions were performed under the physiological conditions (pH 7.4, 30 °C) to compare the catalytic activities of AbGT27 with different substrates under the same conditions. The reactions were performed at 30 °C for up to 12 h and terminated by the addition of 200 μL of ice-cold methanol. Subsequently, samples were centrifuged at 15,000 × g for 30 min to collect the supernatant, and aliquots were analyzed by HPLC-UV/ESIMS. HPLC analysis was performed on a Shiseido CAPCELL PAK C18 MG III column (250 mm × 4.6 mm I.D., 5 μm, Shiseido Co., Ltd., Japan) at a flow rate of 1 mL min^‒1. The mobile phase was a gradient elution of solvents A (0.1% formic acid aqueous solution) and B (methanol). The gradient programs were used for the analysis of the reactions (Supplementary Table 6). The conversion rates of the enzyme reactions were calculated from peak areas of glycosylated products and substrates as analyzed by HPLC. To facilitate inferential statistical analysis, three parallel assays were routinely performed; the means ± SD from triplicate analyses are reported here.
(§2) Site-saturation mutagenesis of AbCGT at residue 183 was performed by PCR using pET28a-AbCGT as a template and the corresponding degenerate primers, which are listed in Supplementary Table 5. PCR products were purified and transformed into Trans1-T1 (DE3) E. coli. The sequences of pET28a-AbCGT mutants were confirmed by sequencing, and transformed into Transetta (DE3) E. coli for heterologous expression following protein purification.

Another assay deals with T2, AbCGT V183D (Aloe vera, UniProt A0A7G9P699, V183D).
T2 sequence (A0A7G9P699 1-470 V183D): T1 sequence (A0A7G9P699 1-470 V183E) with E183D
In words: Glycosyltransferase activity of AbCGT variant V183D. In kind it is biochemical, Aloe barbadensis. As to the method:
as §1, §2

The next assay deals with AbCGT (Aloe vera, UniProt A0A7G9P699). Kind of assay: Glycosyltransferase activity assay, purified AbCGT (wild type) with aglycon acceptors and UDP-Glc. In kind it is biochemical, Aloe barbadensis. The conditions noted are these: for conversion rates, O,N,S-glycosylation / conversion rates, di-C-glycosylation / conversion rates, mono-C-glycosylation: aglycon acceptor with UDP-Glc, pH 7.4, 30 °C, up to 12 h, Reaction-1 to -3. As to the method: as §1, with “Due” for “The reaction mixture contained 0.5 mM sugar donors (1.0 mM for di-glycosylation), 0.25 mM aglycons, 50 mM Tris-HCl (pH 7.4), and 50‒100 μg of purified AbCGT in a final volume of 100 μL. Due”, “HPLC analysis was performed on a Shiseido CAPCELL PAK C18 MG III column (250 mm × 4.6 mm I.D., 5 μm, Shiseido Co., Ltd., Japan) at a flow rate of 1 mL min^‒1. The mobile phase was a gradient elution of solvents A (0.1% formic acid aqueous solution) and B (methanol).” left out

The target of another assay is T3, SGLT2 (Homo sapiens, UniProt P31639).
T3 construct: Human full-length SGLT2 cDNA (NM_003041.3) was synthesized; expressed in transfected cells; host or cells: HEK293, retroviral transduction with pMSCVpuro-SGLT2, puromycin selected
T3 sequence (P31639 1-672): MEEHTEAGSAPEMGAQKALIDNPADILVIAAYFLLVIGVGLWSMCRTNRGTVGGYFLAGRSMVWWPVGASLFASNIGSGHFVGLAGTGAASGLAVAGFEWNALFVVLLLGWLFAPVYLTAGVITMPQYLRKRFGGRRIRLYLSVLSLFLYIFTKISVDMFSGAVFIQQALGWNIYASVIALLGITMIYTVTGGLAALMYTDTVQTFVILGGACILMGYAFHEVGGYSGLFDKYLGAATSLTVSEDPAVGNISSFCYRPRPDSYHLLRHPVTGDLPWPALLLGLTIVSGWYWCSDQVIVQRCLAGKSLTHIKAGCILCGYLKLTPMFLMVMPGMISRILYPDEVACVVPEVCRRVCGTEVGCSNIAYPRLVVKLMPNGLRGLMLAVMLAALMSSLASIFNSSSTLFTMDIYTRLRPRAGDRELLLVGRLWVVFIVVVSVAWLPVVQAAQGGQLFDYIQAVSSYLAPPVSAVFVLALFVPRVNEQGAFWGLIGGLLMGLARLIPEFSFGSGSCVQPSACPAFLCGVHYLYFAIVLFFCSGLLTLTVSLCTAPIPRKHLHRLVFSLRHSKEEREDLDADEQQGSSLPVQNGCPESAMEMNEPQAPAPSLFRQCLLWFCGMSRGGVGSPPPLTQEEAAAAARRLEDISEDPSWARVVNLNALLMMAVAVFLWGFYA
Kind of assay: 1-NBDG uptake in HEK293 cells stably expressing SGLT2. The assay is classed as cell-based. The conditions noted are these: HEK293, compound at 10 μM; triplicate; read-out: SGLT2 inhibitory rates.

Sequence of AbCGT (A0A7G9P699 entry or part of it): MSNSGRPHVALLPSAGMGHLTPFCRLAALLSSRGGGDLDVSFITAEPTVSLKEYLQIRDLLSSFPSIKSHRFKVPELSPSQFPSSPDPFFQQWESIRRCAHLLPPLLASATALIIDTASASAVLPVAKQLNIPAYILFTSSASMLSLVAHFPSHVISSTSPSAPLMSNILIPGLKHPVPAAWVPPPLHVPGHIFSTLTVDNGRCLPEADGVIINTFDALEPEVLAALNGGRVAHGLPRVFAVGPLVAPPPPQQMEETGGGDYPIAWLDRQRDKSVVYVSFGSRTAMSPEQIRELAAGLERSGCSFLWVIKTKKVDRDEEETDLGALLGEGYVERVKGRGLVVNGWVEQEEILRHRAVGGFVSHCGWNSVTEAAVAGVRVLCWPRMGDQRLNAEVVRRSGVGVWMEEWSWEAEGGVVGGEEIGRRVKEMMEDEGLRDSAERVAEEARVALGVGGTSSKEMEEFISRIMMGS

As to `CC(=O)c1c(O)cc(C)cc1O` [Compound 7], the “V183E/yield of C-glycoside(%)” value at AbCGT V183E (reaction-1) came to 11.1%; at AbCGT V183E (reaction-2), 8.9%; on AbCGT V183E (reaction-3), 13.1%. Further, the “V183E/yield of O-glycoside(%)” value on AbCGT V183E (reaction-1), at AbCGT V183E (reaction-2) and at AbCGT V183E (reaction-3) was 0% throughout. The “V183D/yield of C-glycoside(%)” value at AbCGT V183D (reaction-1) stood at 8%; at AbCGT V183D (reaction-2), 7.2%; at AbCGT V183D (reaction-3), 7.2%. The “V183D/yield of O-glycoside(%)” value came to 0.8% on AbCGT V183D (reaction-1), 1% at AbCGT V183D (reaction-2) and 1.3% on AbCGT V183D (reaction-3). Also, at AbCGT, the “conversion rates, O,N,S-glycosylation” value is 77% and 78.6% and 82.4%. In addition, the “conversion rates, di-C-glycosylation” value at AbCGT came to 0%. Moreover, the “conversion rates, mono-C-glycosylation” value at AbCGT is 13.9% and 12% and 15.9%. In addition, the results for the “WT/yield of C-glycoside(%)” value on AbCGT (reaction-1), on AbCGT (reaction-2) and on AbCGT (reaction-3) were 15.2%, 14.1% and 13.5%, respectively. The “WT/yield of O-glycoside(%)” value on AbCGT (reaction-1) stood at 77.6%; on AbCGT (reaction-2), 78%; on AbCGT (reaction-3), 81.4%.

On to `COc1cc(O)c(C(C)=O)c(O)c1` [Compound 13], for which the “V183E/yield of C-glycoside(%)” value worked out at 5.7% at AbCGT V183E (reaction-1), 4.1% at AbCGT V183E (reaction-2) and 6% at AbCGT V183E (reaction-3). Also, the “V183E/yield of O-glycoside(%)” value at AbCGT V183E (reaction-1) amounted to 0.8%; on AbCGT V183E (reaction-2) it was 2%; at AbCGT V183E (reaction-3), 1.1%. In addition, the “V183D/yield of C-glycoside(%)” value at AbCGT V183D (reaction-1) was 6.8%; on AbCGT V183D (reaction-2), 7.3%; on AbCGT V183D (reaction-3), 7%. In addition, the “V183D/yield of O-glycoside(%)” value at AbCGT V183D (reaction-1), on AbCGT V183D (reaction-2) and on AbCGT V183D (reaction-3) was 0% each time. Besides, the “conversion rates, O,N,S-glycosylation” value at AbCGT was 20.7% and 23.5% and 25.6%. The “conversion rates, di-C-glycosylation” value on AbCGT is given as 0%. Besides, on AbCGT, the “conversion rates, mono-C-glycosylation” value was 66.9% and 65.9% and 68.6%. The entries for the “WT/yield of C-glycoside(%)” value at AbCGT (reaction-1), at AbCGT (reaction-2) and at AbCGT (reaction-3) were 70.5%, 65% and 68.1%, respectively. In addition, the “WT/yield of O-glycoside(%)” value at AbCGT (reaction-1) amounted to 21.2%; at AbCGT (reaction-2), 22.7%; at AbCGT (reaction-3), 25.9%.

For the molecule `COc1cc(O)c(C(C)=O)c(OC)c1` [Compound 14], the “V183E/yield of C-glycoside(%)” value is 8% on AbCGT V183E (reaction-1), 7.9% at AbCGT V183E (reaction-2) and 7.5% at AbCGT V183E (reaction-3). Also, the “V183E/yield of O-glycoside(%)” value at AbCGT V183E (reaction-1), at AbCGT V183E (reaction-2) and at AbCGT V183E (reaction-3) was 0% each time. Besides, the “V183D/yield of C-glycoside(%)” value at AbCGT V183D (reaction-1), at AbCGT V183D (reaction-2) and on AbCGT V183D (reaction-3) was 0% throughout. Besides, the “V183D/yield of O-glycoside(%)” value at AbCGT V183D (reaction-1), at AbCGT V183D (reaction-2) and on AbCGT V183D (reaction-3) was 0% each time. Also, at AbCGT, the “conversion rates, O,N,S-glycosylation” value is 2% and 1.9%. Further, on AbCGT, the “conversion rates, di-C-glycosylation” value turned out to be 0%. For the same molecule, the “conversion rates, mono-C-glycosylation” value on AbCGT was determined as 0%. For the same molecule, the “WT/yield of C-glycoside(%)” value on AbCGT (reaction-1), on AbCGT (reaction-2) and at AbCGT (reaction-3) was 0% in each case. In addition, the “WT/yield of O-glycoside(%)” value at AbCGT (reaction-1) turned out to be 1.5%; at AbCGT (reaction-2), 1.6%; on AbCGT (reaction-3), 2.8%.

Turning to `O=C(CCc1ccc(O)cc1)c1c(O)cc(O)c([C@@H]2O[C@H](CO)[C@@H](O)[C@H](O)[C@H]2O)c1O` [Compound 17a], the inhibition at 10 µM on SGLT2 worked out at 52.2%.

In the case of `O=C(CCc1ccc(O)cc1)c1c(O)c([C@@H]2O[C@H](CO)[C@@H](O)[C@H](O)[C@H]2O)c(O)c([C@@H]2O[C@H](CO)[C@@H](O)[C@H](O)[C@H]2O)c1O` [Compound 17aa], on SGLT2, the inhibition at 10 µM stood at 2.8%.

Consider `O=C(CCc1ccc(O)cc1)c1c(O)cc(O)c(C2OC(CO)C(O)C(O)C2O)c1O` [Compound 17b, phloretin-3′-C-β-D-galactoside], for which the inhibition at 10 µM on SGLT2 is -3.1%.

On to `O=C(CCc1ccc(O)cc1)c1c(O)cc(O)c(C2OCC(O)C(O)C2O)c1O` [Compound 17c, phloretin-3′-C-β-D-xyloside], for which, on SGLT2, the inhibition at 10 µM was found to be 1.7%.

As to `Oc1cc(O)cc(OCCCCCCc2ccccc2)c1` [Compound 22], the “V183E/yield of C-glycoside(%)” value on AbCGT V183E (reaction-1), at AbCGT V183E (reaction-2) and on AbCGT V183E (reaction-3) was 0% each time. In addition, the “V183E/yield of O-glycoside(%)” value on AbCGT V183E (reaction-1), at AbCGT V183E (reaction-2) and on AbCGT V183E (reaction-3) was 0% throughout. Besides, the “V183D/yield of C-glycoside(%)” value on AbCGT V183D (reaction-1), on AbCGT V183D (reaction-2) and on AbCGT V183D (reaction-3) was 0% each time. The “V183D/yield of O-glycoside(%)” value at AbCGT V183D (reaction-1), at AbCGT V183D (reaction-2) and at AbCGT V183D (reaction-3) was 0% in each case. Moreover, at AbCGT, the “conversion rates, O,N,S-glycosylation” value is 33% and 31.4% and 25.1%. Besides, at AbCGT, the “conversion rates, di-C-glycosylation” value worked out at 0%. Also, on AbCGT, the “conversion rates, mono-C-glycosylation” value was 8.5% and 9.9% and 11.3%. Moreover, the figures for the “WT/yield of C-glycoside(%)” value at AbCGT (reaction-1), at AbCGT (reaction-2) and at AbCGT (reaction-3) were 9.6%, 11% and 9.5%, respectively. The figures for the “WT/yield of O-glycoside(%)” value at AbCGT (reaction-1), at AbCGT (reaction-2) and on AbCGT (reaction-3) were 28.2%, 26.9% and 34.6%, respectively.
